In patent publication US12410220B2, “Modulation of mammalian cell lineage by synthetic immodulins” (priority 2021, dated 2025):
Peptide text beside a SMILES is read from it.

Molecular target: T1, Nur77 (NR4A1) (Homo sapiens, UniProt P22736)
T1 construct: purchased Abcam Inc, Cambridge, MA
Experiment: Experiment 4C binding to full-length Nur77
Conditions: 400 ng/well Nur77; 333 ng/well SA488-labelled peptide, 60 min; background subtracted
Description: 400 ng/well recombinant human Nur77 protein (NR4A1) purchased from Abcam Inc, Cambridge, MA, was adsorbed to wells of a 96-well plate for 90 minutes at room temperature, then blocked with 200 uL 1% BSA in PBS buffer overnight. The plate was washed with PBS and then 333 ng/well Streptavidin-Alexa 488 conjugate (SA488)-labelled imm3 or imm4 peptide was added. The plate was incubated for 60 min at room temperature, washed and counted in a standard fluorometer (excitation/emission 485/525 nm). Background (buffer alone) was subtracted.

T1 sequence (P22736 whole entry): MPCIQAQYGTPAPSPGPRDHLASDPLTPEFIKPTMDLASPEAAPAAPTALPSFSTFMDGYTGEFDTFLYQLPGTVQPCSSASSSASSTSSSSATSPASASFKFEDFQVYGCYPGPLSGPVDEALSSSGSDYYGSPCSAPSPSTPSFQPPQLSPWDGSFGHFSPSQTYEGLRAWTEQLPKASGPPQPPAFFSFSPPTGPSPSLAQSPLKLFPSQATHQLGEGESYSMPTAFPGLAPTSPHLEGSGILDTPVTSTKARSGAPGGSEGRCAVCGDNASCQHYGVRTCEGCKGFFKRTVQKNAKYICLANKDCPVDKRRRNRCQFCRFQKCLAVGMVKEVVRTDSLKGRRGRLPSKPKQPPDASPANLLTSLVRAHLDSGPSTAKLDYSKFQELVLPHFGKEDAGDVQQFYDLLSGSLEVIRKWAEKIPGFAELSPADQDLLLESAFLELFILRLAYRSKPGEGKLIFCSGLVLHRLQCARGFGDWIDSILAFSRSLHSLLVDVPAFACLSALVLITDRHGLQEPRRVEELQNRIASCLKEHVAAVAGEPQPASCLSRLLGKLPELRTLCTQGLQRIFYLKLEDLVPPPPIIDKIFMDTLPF

| Compound | Binding to Nur77 (NR4A1), normalized to imm3 binding=100 |
| --- | --- |
| CC(C)C[C@H](NC(=O)[C@H](C)NC(=O)[C@@H]1CCCN1C(=O)[C@H](Cc1c[nH]cn1)NC(=O)[C@H](CS)NC(=O)[C@H](CCC(N)=O)NC(=O)[C@H](CCCCN)NC(=O)[C@@H]1CCCN1C(=O)[C@H](Cc1c[nH]cn1)NC(=O)[C@H](Cc1ccccc1)NC(=O)[C@H](CC(N)=O)NC(=O)CNC(=O)[C@H](CC(N)=O)NC(=O)[C@@H](N)CCCNC(=N)N)C(=O)N[C@@H](CC(=O)O)C(=O)NCC(=O)N[C@@H](CCC(N)=O)C(=O)N[C@@H](CCCNC(=N)N)C(=O)NCC(=O)N[C@@H](CCCCN)C(=O)N[C@@H](CS)C(=O)N[C@@H](Cc1c[nH]c2ccccc12)C(=O)O [imm4] (H-RNGNFHPKQCHPALDGQRGKCW-OH; N-terminus and C-terminus assumed) | 0.3 ± 8.9 |
| N=C(N)NCCC[C@H](NC(=O)CNC(=O)[C@H](CCCCN)NC(=O)[C@H](CO)NC(=O)[C@@H]1CCCN1C(=O)[C@H](CCCNC(=N)N)NC(=O)[C@H](CS)NC(=O)[C@H](CCC(N)=O)NC(=O)[C@H](CCCCN)NC(=O)[C@H](CCCCN)NC(=O)[C@H](CCCCN)NC(=O)[C@H](Cc1ccc(O)cc1)NC(=O)[C@H](Cc1ccccc1)NC(=O)CNC(=O)[C@H](CCCCN)NC(=O)[C@@H](N)CCCCN)C(=O)N[C@@H](CCCCN)C(=O)N[C@@H](CCCNC(=N)N)C(=O)NCC(=O)N[C@@H](Cc1ccccc1)C(=O)N[C@@H](CS)C(=O)N[C@@H](Cc1c[nH]c2ccccc12)C(=O)O [imm3] (H-KKGFYKKKQCRPSKGRKRGFCW-OH; N-terminus and C-terminus assumed) | 100.0 ± 9.3 |
